Experiments:
gel-filtered platelets = experiment: In vitro inhibition of thrombin-induced gel-filtered platelet aggregation; assay type: cell-based; conditions: Homo sapiens; for inhibition at 50 µM: read-out: Platelet Aggregation % Inh. (50 μM)
Protocol: In Vitro Inhibition of Thrombin-Induced Gel-Filtered Platelet Aggression Assay
The percentage of platelet aggregation is calculated as an increase in light transmission of compound-treated platelet concentrate vs. control-treated platelet concentrate. Human blood was obtained from drug free, normal donors into tubes containing […] sodium citrate. Platelet rich plasma (PRP) was collected by centrifugation of whole blood at 200×g for 10 min at 25° C. The PRP (5 mL) was gel filtered through Sepharose 2B (bed volume 50 mL), and the platelet count was adjusted to 2×10^7 platelets per sample. The following constituents were added to a siliconized cuvette: concentrated platelet filtrate and Tyrode's buffer (0.14M NaCl, 0.0027M KCl, 0.012M NaHCO3,0.76 mM Na2 HPO4, 0.0055M glucose, 2 mg/mL BSA and 5.0 mM HEPES @ pH 7.4) in an amount equal to 350 μl, 50 μl of 20 mM calcium and 50 μl of the test compound. Aggregation was monitored in a BIODATA aggregometer for the 3 min following the addition of agonist (thrombin 50 μl of 1 unit/mL).

[1] = test system: ADP-induced ex vivo platelet aggregation; experiment: Ex vivo dog study: duration of >50% inhibition of ADP-induced ex vivo platelet aggregation; assay type: in vivo
Protocol: Adult mongrel dogs (8-13 kg) were anesthetized with sodium pentobarbital (35 mg/kg, i.v.) and artificially respired. Arterial blood pressure and heart rate were measured using a Millar catheter-tip pressure transducer inserted in a femoral artery. Another Millar transducer was placed in the left ventricle (LV) via a carotid artery to measure LV end diastolic pressure and indices of myocardial contractility. A lead II electrocardiogram was recorded from limb electrodes. Catheters were placed in a femoral artery and vein to sample blood and infuse drugs, respectively. Responses were continuously monitored using a Modular Instruments data acquisition system.
Arterial blood samples (5-9 ml) were withdrawn into tubes containing 3.8% sodium citrate to prepare platelet rich plasma (PRP) and to determine effects on coagulation parameters: prothrombin time (PT) and activated partial thromboplastin time (APTT). Separate blood samples (1.5 ml) were withdrawn in EDTA to determine hematocrit and cell counts (platelets, RBC's and white cells). Template bleeding times were obtained from the buccal surface using a symplate incision devise and Whatman filter paper.
Aggregation of PRP was performed using a BioData aggregometer. Aggregation of whole blood used a Chronolog impedance aggregometer. PT and APTT were determined on either a BioData or ACL 3000+ coagulation analyzer. Cells were counted with a Sysmex K-1000.
Compounds were solubilized in a small volume of dimethylformamide (DMF) and diluted with saline to a final concentration of 10% DMF. Compounds were administered by the intravenous route with a Harvard infusion pump. Doses was administered over a 15 min interval at a constant rate of 0.33 ml/min. Data were obtained after each dose and in 30 min intervals following the end of drug administration. Oral doses were administered as aqueous solutions via syringe.

GPIIb/IIIa = GPIIb/IIIa (Homo sapiens, UniProt P05106+P08514); experiment: In vitro solid phase purified glycoprotein IIb/IIIa binding assay (fibrinogen binding); conditions: for inhibition at 50 µM: read-out: Fibrinogen Binding % Inh. (50 μM)
Protocol: In Vito Solid Phase Purified Glycoprotein IIB/IIA Binding Assay
The plate was covered and incubated overnight at 4° C. The GPIIb/IIa solution was discarded and 150 μl of 5% BSA was added and incubated at RT for 1-3 h. The plate was washed extensively with modified Tyrodes buffer. Biotinylated fibrinogen (25 μl/well) at 2×final concentration was added to the wells that contain the test compounds (25 μl/well). The plate was covered and incubated at RT for 2-4 h. Twenty minutes prior to incubation completion, one drop of Reagent A (Vecta Stain ABC Horse Radish Peroxidase kit, Vector Laboratories, Inc.) and one drop Reagent B were added with mixing to 5 mL modified Tyrodes buffer mix and let stand. The ligand solution was discarded and the plate washed (5×200 μl/well) with modified Tyrodes buffer. Vecta Stain HRP-Biotin-Avidin reagent (50 μl/well, as prepared above) was added and incubated at RT for 15 min. The Vecta Stain solution was discarded and the wells washed (5×200 μl/well) with modified Tyrodes buffer. Developing buffer (10 mL of 50 mM citrate/phosphate buffer @ pH 5.3, 6 mg o-phenylenediamine, 6 μl 30% H2 O2; 50 μl/well) was added and incubated at RT for 3-5 min, and then 2N H2 SO4 (50 μl/well) was added. The absorbance was read at 490 nm.

Sequence of GPIIb/IIIa (P08514 32-887 limits assumed): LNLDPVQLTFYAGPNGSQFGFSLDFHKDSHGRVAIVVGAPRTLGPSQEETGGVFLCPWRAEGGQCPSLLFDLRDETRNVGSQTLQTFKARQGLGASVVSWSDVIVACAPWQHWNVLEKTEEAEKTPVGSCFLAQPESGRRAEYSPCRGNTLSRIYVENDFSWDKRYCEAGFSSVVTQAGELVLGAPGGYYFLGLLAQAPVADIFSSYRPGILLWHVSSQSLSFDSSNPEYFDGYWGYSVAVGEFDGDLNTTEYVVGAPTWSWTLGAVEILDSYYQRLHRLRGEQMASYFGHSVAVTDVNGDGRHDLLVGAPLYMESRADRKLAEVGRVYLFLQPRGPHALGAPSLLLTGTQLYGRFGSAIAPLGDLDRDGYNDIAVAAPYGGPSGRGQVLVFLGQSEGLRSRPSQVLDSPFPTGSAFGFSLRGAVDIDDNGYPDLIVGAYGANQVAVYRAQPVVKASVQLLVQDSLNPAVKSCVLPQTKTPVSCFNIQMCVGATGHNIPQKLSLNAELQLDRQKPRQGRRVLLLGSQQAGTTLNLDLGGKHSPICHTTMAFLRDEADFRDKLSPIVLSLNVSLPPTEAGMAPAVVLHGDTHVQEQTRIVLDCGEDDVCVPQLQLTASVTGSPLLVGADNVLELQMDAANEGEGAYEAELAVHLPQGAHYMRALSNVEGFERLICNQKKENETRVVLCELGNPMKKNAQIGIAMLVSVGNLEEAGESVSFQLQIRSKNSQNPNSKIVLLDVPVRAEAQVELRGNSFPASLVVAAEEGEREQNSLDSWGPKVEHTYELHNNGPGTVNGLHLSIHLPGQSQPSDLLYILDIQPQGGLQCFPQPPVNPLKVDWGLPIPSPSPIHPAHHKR
Sequence of GPIIb/IIIa (P08514 891-1039 limits assumed): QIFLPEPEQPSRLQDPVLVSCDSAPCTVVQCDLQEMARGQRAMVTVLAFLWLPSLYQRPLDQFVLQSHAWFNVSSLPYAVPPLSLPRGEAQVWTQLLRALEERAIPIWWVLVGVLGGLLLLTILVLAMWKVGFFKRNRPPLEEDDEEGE
Sequence of GPIIb/IIIa (P05106 27-788): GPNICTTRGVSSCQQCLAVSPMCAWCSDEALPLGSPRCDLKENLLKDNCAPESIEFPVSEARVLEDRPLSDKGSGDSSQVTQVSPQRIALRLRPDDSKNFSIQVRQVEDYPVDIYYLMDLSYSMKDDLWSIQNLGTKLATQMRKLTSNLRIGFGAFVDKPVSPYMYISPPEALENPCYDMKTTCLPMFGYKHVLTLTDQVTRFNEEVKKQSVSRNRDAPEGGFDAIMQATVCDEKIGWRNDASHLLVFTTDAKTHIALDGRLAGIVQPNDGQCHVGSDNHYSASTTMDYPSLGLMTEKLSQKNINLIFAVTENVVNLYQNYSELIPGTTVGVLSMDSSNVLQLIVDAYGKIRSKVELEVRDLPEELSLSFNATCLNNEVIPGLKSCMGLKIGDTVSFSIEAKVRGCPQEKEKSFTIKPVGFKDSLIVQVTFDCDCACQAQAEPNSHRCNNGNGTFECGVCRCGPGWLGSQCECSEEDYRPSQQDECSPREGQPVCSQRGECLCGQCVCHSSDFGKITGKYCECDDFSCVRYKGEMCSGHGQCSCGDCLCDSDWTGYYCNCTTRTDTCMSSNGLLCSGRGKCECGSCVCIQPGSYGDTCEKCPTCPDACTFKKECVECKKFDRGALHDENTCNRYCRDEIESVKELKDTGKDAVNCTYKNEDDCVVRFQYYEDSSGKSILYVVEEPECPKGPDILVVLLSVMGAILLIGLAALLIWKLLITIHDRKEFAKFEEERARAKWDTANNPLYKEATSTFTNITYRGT

Compound	IC50 (gel-filtered platelets)	inhibition at 50 µM (gel-filtered platelets)	Intravenous Dosing Duration (of >50% inhibition of ADP-induced ex vivo platelet aggregation) ([1]; 0.3 mpk)	Oral Dosing Duration (of >50% inhibition of ADP-induced ex vivo platelet aggregation) ([1]; 3 mpk)	IC50 (GPIIb/IIIa)	inhibition at 50 µM (GPIIb/IIIa)	Intravenous Dosing Duration (of >50% inhibition of ADP-induced ex vivo platelet aggregation) ([1]; 0.1 mpk)	Oral Dosing Duration (of >50% inhibition of ADP-induced ex vivo platelet aggregation) ([1]; 1 mpk)
O=C(O)C[C@H](NC(=O)C1CCCn2c(CCC3CCNCC3)nnc21)c1cccnc1 (stereo partly drawn) [Compound 1, β-[[[5,6,7,8-Tetrahydro-3-[2-(4-piperidinyl)ethyl]-1,2,4-triazolo[4,3-a]pyridin-8-yl]carbonyl]amino]-βS-3-pyridinepropanoic acid]	16 nM	100%	180 min	360 min	0.4 nM	100%	–	–
O=C(O)CCNC(=O)C1CCCn2c(CCC3CCNCC3)nnc21 (stereo not drawn) [Compound 2, β-[[[5,6,7,8-Tetrahydro-3-[2-(4-piperidinyl)ethyl]-1,2,4-triazolo[4,3-a]pyridin-8-yl]carbonyl]amino]-β-propanoic acid]	1300 nM	98%	–	–	7.2 nM	98%	–	–
O=C(N[C@@H](CNC(=O)C1CCCn2c(CCC3CCNCC3)nnc21)C(=O)O)OCc1ccccc1 (stereo partly drawn) [Compound 3, β-[[[5,6,7,8-Tetrahydro-3-[2-(4-piperidinyl)ethyl]-1,2,4-triazolo[4,3-a]pyridin-8-yl]carbonyl]amino]-αS-benzyloxycarbonylamino-propanoic acid]	68 nM	100%	–	–	0.48 nM	100%	120 min	300 min
CCN(CC)C(=O)COC(=O)C[C@H](NC(=O)C1CCCn2c(CCC3CCNCC3)nnc21)c1cccnc1 (stereo partly drawn) [Compound 4, β-[[[5,6,7,8-Tetrahydro-3-[2-(4-piperidinyl)ethyl]-1,2,4-triazolo[4,3-a]pyridin-8-yl]carbonyl]amino]-βS-3-pyridinepropanoic acid 2-(Diethylamino)-2-oxoethyl ester]	16400 nM	100%	–	–	44.7 nM	100%	–	< 30 min
O=C(N[C@@H](CNC(=O)C1CCCn2c(/C=C/C3CCNCC3)nnc21)C(=O)O)OCc1ccccc1 (stereo partly drawn) [Compound 5, β-[[[5,6,7,8-Tetrahydro-3-[2-(4-pipieridinyl)E-ethylene]-1,2,4-triazolo[4,3-a]pyridin-8-yl]carbonyl]amino]-αS-benzyloxycarbonylamino-propanoic acid]	23 nM	100%	–	–	0.1 nM	100%	120 min	360 min
CCN(CC)C(=O)COC(=O)[C@H](CNC(=O)C1CCCn2c(CCC3CCNCC3)nnc21)NC(=O)OCc1ccccc1 (stereo partly drawn) [Compound 6, β-[[[5,6,7,8-Tetrahydro-3-[2-(4-piperidinyl)ethyl]-1,2,4-triazolo[4,3-a]pyridin-8-yl]carbonyl]amino]-αS-benzyloxycarbonylamino-propanoic acid 2-(Diethylamino)-2-oxoethyl ester]	1900 nM	100%	–	–	8.2 nM	100%	–	–
O=C(O)CC(NC(=O)C1CCCn2c(CCC3CCNCC3)nnc21)c1ccsc1 (stereo not drawn) [Compound 7, β-[[[5,6,7,8-Tetrahydro-3-[2-(4-piperidinyl)ethyl]-1,2,4-triazolo[4,3-a]pyridin-8-yl]carbonyl]amino]-β-3-thiophenepropanoic acid]	350 nM	100%	–	–	0.75 nM	100%	–	–
O=C(NC(CNC(=O)C1CCCn2c(C(F)=CC3CCNCC3)nnc21)C(=O)O)OCc1ccccc1 (stereo not drawn) [Compound 9, β-[[[6,7,8-Tetrahydro-3-[2-(4-piperidinyl)Z-1-fluoroethylene]-1,2,4-triazolo[4,3-a]pyridin-8-yl]carbonyl]amino]-αS-benzyloxycarbonylamino-propanoic acid]	500 nM	100%	–	–	1.7 nM	100%	–	–
O=C(O)CC(NC(=O)C1CCCn2c(/C=C/C3CCNCC3)nnc21)c1ccncc1 (stereo not drawn) [Compound 10, β-[[[5,6,7,8-Tetrahydro-3-[2-(4-piperidinyl)E-ethylene]-1,2,4-triazolo[4,3-a]pyridin-8-yl]carbonyl]amino]-β-4-pyridinepropanoic acid]	180 nM	100%	–	–	0.94 nM	100%	–	–
Cc1noc(C)c1S(=O)(=O)N[C@@H](CNC(=O)C1CCCn2c(/C=C/C3CCNCC3)nnc21)C(=O)O (stereo partly drawn) [Compound 11, β-[[[5,6,7,8-Tetrahydro-3-[2-(4-piperidinyl)E-ethylene]-1,2,4-triazolo[4,3-a]pyridin-8-yl]carbonyl]amino]-αS-4-(3,5-dimethylisoxazolyl)sulfonylamino-propanoic acid]	110 nM	100%	–	–	1.1 nM	100%	–	–
O=C(O)C[C@H](NC(=O)C1CCCn2c(/C=C/C3CCNCC3)nnc21)c1cnc2ccccc2c1 (stereo partly drawn) [Compound 13, β-[[[5,6,7,8-Tetrahydro-3-[2-(4-piperidinyl)E-ethylene]-1,2,4-tiazolo[4,3-a]pyridin-8-yl]carbonyl]amino]-βS-3-quinolinylpropanoic acid]	57 nM	100%	–	–	0.44 nM	100%	–	–
O=C(NC[C@H](NS(=O)(=O)Cc1ccccc1)C(=O)O)C1CCCn2c(/C=C/C3CCNCC3)nnc21 (stereo partly drawn) [Compound 14, β-[[[5,6,7,8-Tetrahydro-3-[2-(4-piperidinyl)E-ethylene]-1,2,4-triazolo[4,3-a]pyridin-8-yl]carbonyl]amino]-αS-benzylsulfonylamino-propanoic acid]	43 nM	100%	–	–	0.51 nM	100%	–	–
O=C(Cc1cccnc1)N[C@@H](CNC(=O)C1CCCn2c(/C=C/C3CCNCC3)nnc21)C(=O)O (stereo partly drawn) [Compound 15, β-[[[5,6,7,8-Tetrahydro-3-[2-(4-piperidinyl)E-ethylene]-1,2,4-triazolo[4,3-a]pyridin-8-yl]carbonyl]amino]-αS-3-pyridylacetylamino-propanoicacid]	120 nM	100%	–	–	1.4 nM	100%	–	–
CC(C)COC(=O)N[C@@H](CNC(=O)C1CCCn2c(/C=C/C3CCNCC3)nnc21)C(=O)O (stereo partly drawn) [Compound 16, β-[[[5,6,7,8-Tetrahydro-3-[2-(4-piperidinyl)E-ethylene]-1,2,4-triazolo[4,3-a]pyridin-8-yl]carbonyl]amino]-αS-isobutyloxycarbonylamino-propanoic acid]	600 nM	100%	–	–	0.6 nM	100%	–	–
O=C(O)C[C@H](NC(=O)c1cccn2c(CCC3CCNCC3)nnc12)c1cccnc1 [Compound 17, β-[[[3-[2-(4-piperidinyl)ethyl]-1,2,4-triazolo[4,3-a]pyridin-8-yl]carbonyl]amino]-βS-3-pyridylpropanoic acid]	> 1000 nM	–	–	–	443 nM	90%	–	–

— patent publication US6303625A, “Triazolopyridines for the treatment of thrombosis disorders” (Ortho-McNeil Pharmaceutical, Inc., priority 1999, dated 2001)
